Tested on: 377384-186-R-J1-PDC complex spheroid viability
Assay: Anticancer human tumor 377384-186-R-J1-PDC patient-derived pancreatic carcinoma cell line growth inhibition [RAS]
Details: for IC50: curve of first compound; for viability, T/C: stronger effect = lower value
Text: RAS pathway inhibitors in Combinations in Complex Spheroids
A high-throughput screen of multi-cell type tumor spheroids was designed to identify active combinations of RAS pathway inhibitors and targeted small molecules. Complex spheroids include a stromal component modeled by human endothelial cells (HUVEC) and fibroblasts modeled by human mesenchymal stem cells (MSCs). The concentration ranges selected for each drug and investigational agent were based upon clinically achievable concentrations if the clinical Cmax of the agent was known.
Compounds. The drugs and investigational agents: abemaciclib (NSC768073), cobimetinib (NSC768068), divarasib (GDC6063, NSC841802), docetaxel (NSC628503), GDC-1971 (RLY-1971, NSC841576), gemcitabine (NSC613327), inavolisib (NSC800729), ipatasertib (NSC767898), KB-0742 (NSC834161), MRTX-1133 (NSC836407), osimertinib (NSC779217), RMC-4630 (NSC839698), RMC-6236 (NSC851965), RMC-6291 (NSC852671), Ro-3306 (NSC812927), sapanisertib (NSC764658), SN-38 (NSC673596), staurosporine (NSC755774), SY5609 (NSC837396), and tovorafenib (DAY101, NSC766906), were obtained from the National Cancer Institute (NCI) Developmental Therapeutics Program Chemical Repository. The FDA-approved anticancer drug set is available from the NCI Developmental Therapeutics Program. […] The stock solutions were prepared in dimethyl sulfoxide (DMSO, Sigma-Aldrich, St. Louis, MO, cat. D2650) at 800-fold the tested concentration and stored at -70 degrees C prior to their use. All drugs and investigational agents were tested over a range starting from a high concentration at or near the clinical Cmax and decreasing in half-log increments. If the clinical Cmax for an agent had not been determined, the highest concentration tested was 10 microM.
Cell Culture. All cells were maintained in an incubator at 37 degrees C and 5% CO2 with 95% humidity. The PDC lines were cultured according to standard operating procedures established by the NCI PDMR. All PDCs were thawed and cultured in Matrigel-coated flasks prepared with a working solution of 1X Ham's F-12 nutrient mix, without supplementation (Invitrogen, Waltham, MA, cat. 11765054), 100 U/mL penicillin-streptomycin (Invitrogen, cat. 15140122), and 2.5% Matrigel (Corning Inc., Corning, NY, cat. 354248) for the first three passages. The 362531-283-R-J2-PDC and 782815-120-R-J1-PDC lines were cultured in 6C/Colon 1B media, which includes advanced DMEM/F-12 (Thermo Fisher Scientific, cat. 12634028), 10 mM HEPES (Thermo Fisher Scientific, cat. 15630080), 1X GlutaMAX supplement (Thermo Fisher Scientific, cat. 35050061), 0.1 mg/mL primocin (InvivoGen, San Diego, CA, cat. ant-pm-2), 10% defined fetal bovine serum, heat inactivated (HyClone Laboratories Inc., Logan, UT, cat. SH30070.03HI), 50% L-WRN conditioned media (ATCC, cat. CRL-3276), 1.25 mM N-Acetyl-L-cysteine (Sigma-Aldrich, cat. A9165), 10 mM nicotinamide (Sigma-Aldrich, cat. N0636), 1X B-27 supplement (Thermo Fisher Scientific, cat. 17504044), 1X N-2 supplement (Thermo Fisher Scientific, cat. 17502048), 50 ng/mL human EGF (Thermo Fisher Scientific, cat. PHG0311), and 10 microM Y-27632 dihydrochloride (Tocris Bioscience, cat. 1254). The K12877-001-R-J1-PDC line was cultured in 6I media, which includes all 6C/Colon 1B media plus 10 ng/mL human FGF-10 (PeproTech, cat. 100-26), 1 ng/mL human FGF-2 (PeproTech, cat. 100-18B), 1 µM prostaglandin E2 (Tocris Bioscience, cat. 2296), […] hydrocortisone (Sigma-Aldrich, cat. H4001), and […] bovine insulin (Sigma-Aldrich, cat. I6634). The K86415-001-R-J1-PDC line was cultured in 6D media, which includes all 6C/Colon 1B media components minus the L-WRN conditioned media. The 485176-168-R4-J1-PDC was cultured in PANC media, which includes all 6C/Colon 1B media plus 100 ng/mL human FGF-10 (PeproTech, cat. 100-26), 500 nM SB-431542 (Selleckchem, cat. S1067), and 10 nM gastrin (Tocris Bioscience, cat. 3006). […]

[1] = second compound 0.0316 µM, first compound 0.0316 µM
[2] = second compound 0.0316 µM, first compound 0.1 µM
[3] = second compound 0.0316 µM, first compound 0.316 µM
[4] = second compound 0.0316 µM, first compound 1 µM
[5] = second compound 0.0316 µM, first compound 3.16 µM
[6] = second compound 0.0316 µM, first compound 10 µM
[7] = second compound 0.1 µM, first compound 0.0316 µM
[8] = second compound 0.1 µM, first compound 0.1 µM
[9] = second compound 0.1 µM, first compound 0.316 µM
[10] = second compound 0.1 µM, first compound 1 µM
[11] = second compound 0.1 µM, first compound 3.16 µM
[12] = second compound 0.1 µM, first compound 10 µM
[13] = second compound 0.316 µM, first compound 0.0316 µM
[14] = second compound 0.316 µM, first compound 0.1 µM
[15] = second compound 0.316 µM, first compound 0.316 µM
[16] = second compound 0.316 µM, first compound 1 µM
[17] = second compound 0.316 µM, first compound 3.16 µM
[18] = second compound 0.316 µM, first compound 10 µM
[19] = second compound 1 µM, first compound 0.0316 µM
[20] = second compound 1 µM, first compound 0.1 µM
[21] = second compound 1 µM, first compound 0.316 µM
[22] = second compound 1 µM, first compound 1 µM
[23] = second compound 1 µM, first compound 3.16 µM
[24] = second compound 1 µM, first compound 10 µM
[25] = second compound 3.16 µM, first compound 0.0316 µM
[26] = second compound 3.16 µM, first compound 0.1 µM
[27] = second compound 3.16 µM, first compound 0.316 µM
[28] = second compound 3.16 µM, first compound 1 µM
[29] = second compound 3.16 µM, first compound 3.16 µM
[30] = second compound 3.16 µM, first compound 10 µM
[31] = second compound 10 µM, first compound 0.0316 µM
[32] = second compound 10 µM, first compound 0.1 µM
[33] = second compound 10 µM, first compound 0.316 µM
[34] = second compound 10 µM, first compound 1 µM
[35] = second compound 10 µM, first compound 3.16 µM
[36] = second compound 10 µM, first compound 10 µM
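Further: spheroids exposed to compounds for seven days before readout.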

## CC(C)NCC(C(=O)N1CCN(c2ncnc3c2C(C)CC3O)CC1)c1ccc(Cl)cc1 (stereo unspecified) + C#Cc1c(F)ccc2cc(O)cc(-c3ncc4c(N5CC6CCC(C5)N6)nc(OCC56CCCN5CC(F)C6)nc4c3F)c12
Second compound 0.0316 µM
  IC50: < 31.6 nM
Second compound 0.1 µM
  IC50: < 31.6 nM
Second compound 0.316 µM
  IC50: < 31.6 nM
Second compound 1 µM
  IC50: < 31.6 nM
Second compound 3.16 µM
  IC50: < 31.6 nM
Second compound 10 µM
  IC50: < 31.6 nM
[1]
  viability, T/C: 22.6%
[2]
  viability, T/C: 18.8%
[3]
  viability, T/C: 18.2%
[4]
  viability, T/C: 16.9%
[5]
  viability, T/C: 11%
[6]
  viability, T/C: 9.91%
[7]
  viability, T/C: 10.2%
[8]
  viability, T/C: 10.5%
[9]
  viability, T/C: 8.54%
[10]
  viability, T/C: 9.68%
[11]
  viability, T/C: 6.47%
[12]
  viability, T/C: 3.99%
[13]
  viability, T/C: 4.76%
[14]
  viability, T/C: 4.25%
[15]
  viability, T/C: 5.02%
[16]
  viability, T/C: 3.37%
[17]
  viability, T/C: 3.87%
[18]
  viability, T/C: 3.34%
[19]
  viability, T/C: 3.41%
[20]
  viability, T/C: 17.1%
[21]
  viability, T/C: 2.83%
[22]
  viability, T/C: 2.26%
[23]
  viability, T/C: 1.72%
[24]
  viability, T/C: 1.05%
[25]
  viability, T/C: 2.28%
[26]
  viability, T/C: 2.34%
[27]
  viability, T/C: 1.81%
[28]
  viability, T/C: 1.19%
[29]
  viability, T/C: 1.15%
[30]
  viability, T/C: 0.64%
[31]
  viability, T/C: 1.35%
[32]
  viability, T/C: 1.29%
[33]
  viability, T/C: 0.78%
[34]
  viability, T/C: 0.79%
[35]
  viability, T/C: 0.61%
[36]
  viability, T/C: 0.18%

## CC(C)n1nc(-c2ccc3oc(N)nc3c2)c2c(N)ncnc21 + C#Cc1c(F)ccc2cc(O)cc(-c3ncc4c(N5CC6CCC(C5)N6)nc(OCC56CCCN5CC(F)C6)nc4c3F)c12
Second compound 0.0316 µM
  IC50: < 0.316 nM
Second compound 0.1 µM
  IC50: < 0.316 nM
Second compound 0.316 µM
  IC50: < 0.316 nM
Second compound 1 µM
  IC50: < 0.316 nM
Second compound 3.16 µM
  IC50: < 0.316 nM
Second compound 10 µM
  IC50: < 0.316 nM
Second compound 0.0316 µM, first compound 0.000316 µM
  viability, T/C: 23.1%
Second compound 0.0316 µM, first compound 0.001 µM
  viability, T/C: 17.9%
Second compound 0.0316 µM, first compound 0.00316 µM
  viability, T/C: 13.3%
Second compound 0.0316 µM, first compound 0.01 µM
  viability, T/C: 16.1%
[1]
  viability, T/C: 8.86%
[2]
  viability, T/C: 7.03%
Second compound 0.1 µM, first compound 0.000316 µM
  viability, T/C: 9.35%
Second compound 0.1 µM, first compound 0.001 µM
  viability, T/C: 10.2%
Second compound 0.1 µM, first compound 0.00316 µM
  viability, T/C: 8.78%
Second compound 0.1 µM, first compound 0.01 µM
  viability, T/C: 8.07%
[7]
  viability, T/C: 4.39%
[8]
  viability, T/C: 3.64%
Second compound 0.316 µM, first compound 0.000316 µM
  viability, T/C: 4.61%
Second compound 0.316 µM, first compound 0.001 µM
  viability, T/C: 4.79%
Second compound 0.316 µM, first compound 0.00316 µM
  viability, T/C: 3.5%
Second compound 0.316 µM, first compound 0.01 µM
  viability, T/C: 3.8%
[13]
  viability, T/C: 2.4%
[14]
  viability, T/C: 2.03%
Second compound 1 µM, first compound 0.000316 µM
  viability, T/C: 2.88%
Second compound 1 µM, first compound 0.001 µM
  viability, T/C: 2.78%
Second compound 1 µM, first compound 0.00316 µM
  viability, T/C: 2.19%
Second compound 1 µM, first compound 0.01 µM
  viability, T/C: 2.05%
[19]
  viability, T/C: 1.53%
[20]
  viability, T/C: 1.23%
Second compound 3.16 µM, first compound 0.000316 µM
  viability, T/C: 1.79%
Second compound 3.16 µM, first compound 0.001 µM
  viability, T/C: 2.07%
Second compound 3.16 µM, first compound 0.00316 µM
  viability, T/C: 2.15%
Second compound 3.16 µM, first compound 0.01 µM
  viability, T/C: 1.84%
[25]
  viability, T/C: 1.11%
[26]
  viability, T/C: 0.65%
Second compound 10 µM, first compound 0.000316 µM
  viability, T/C: 1.04%
Second compound 10 µM, first compound 0.001 µM
  viability, T/C: 0.81%
Second compound 10 µM, first compound 0.00316 µM
  viability, T/C: 0.8%
Second compound 10 µM, first compound 0.01 µM
  viability, T/C: 0.63%
[31]
  viability, T/C: 0.95%
[32]
  viability, T/C: 0.15%

## CC(Nc1ccc2c(c1)OCCn1cc(N3C(=O)OCC3C(F)F)nc1-2)C(N)=O (stereo unspecified) + C#Cc1c(F)ccc2cc(O)cc(-c3ncc4c(N5CC6CCC(C5)N6)nc(OCC56CCCN5CC(F)C6)nc4c3F)c12
Second compound 0.0316 µM
  IC50: < 31.6 nM
Second compound 0.1 µM
  IC50: < 31.6 nM
Second compound 0.316 µM
  IC50: < 31.6 nM
Second compound 1 µM
  IC50: < 31.6 nM
Second compound 3.16 µM
  IC50: < 31.6 nM
Second compound 10 µM
  IC50: < 31.6 nM
[1]
  viability, T/C: 15.8%
[2]
  viability, T/C: 14.3%
[3]
  viability, T/C: 7.76%
[4]
  viability, T/C: 6.8%
[5]
  viability, T/C: 5.84%
[6]
  viability, T/C: 4.21%
[7]
  viability, T/C: 6.67%
[8]
  viability, T/C: 6.43%
[9]
  viability, T/C: 3.06%
[10]
  viability, T/C: 2.11%
[11]
  viability, T/C: 1.21%
[12]
  viability, T/C: 0.7%
[13]
  viability, T/C: 3.3%
[14]
  viability, T/C: 2.54%
[15]
  viability, T/C: 1.59%
[16]
  viability, T/C: 0.81%
[17]
  viability, T/C: 0.63%
[18]
  viability, T/C: 0.43%
[19]
  viability, T/C: 2.75%
[20]
  viability, T/C: 1.42%
[21]
  viability, T/C: 0.85%
[22]
  viability, T/C: 0.69%
[23]
  viability, T/C: 0.44%
[24]
  viability, T/C: 0.27%
[25]
  viability, T/C: 1.42%
[26]
  viability, T/C: 0.91%
[27]
  viability, T/C: 0.56%
[28]
  viability, T/C: 0.32%
[29]
  viability, T/C: 0.39%
[30]
  viability, T/C: 0.32%
[31]
  viability, T/C: 0.95%
[32]
  viability, T/C: 0.23%
[33]
  viability, T/C: 0.14%
[34]
  viability, T/C: 0.17%
[35]
  viability, T/C: 0.45%
[36]
  viability, T/C: 0.11%

Source: PubChem BioAssay AID2060903 (Molecular Pharmacology Branch, DTP, NCI, 2025)
